In patent US20060293343A1, “Pyrimidine derivatives” (Asahi Kasei Pharma Corporation, priority 2005, published 2006):

What was measured:
PDE4 = system: T1, PDE4; assay: Inhibitory action of PDE4 enzyme activity (PDE4 purified from U937 cells); type: biochemical; details: PDE4 fraction purified from U937 cells; [3H]-cAMP substrate; 30° C., 10 minutes
T1 construct: The PDE4 enzyme was purified from U937 cells that are the cells derived from lymphoma
Protocol: (1) Purification of PDE4 from U937 Cells
The PDE4 enzyme was purified from U937 cells that are the cells derived from lymphoma. U937 cells were suspended in buffer solution A (20 mM Tris-HCl(pH 6.5), 1 mM MgCl2, 0.1 mM EGTA, 3 mM 2-mercaptoethanol) containing protease. inhibitor cocktail (manufactured by Sigma Co.), and a soluble fraction was obtained by centrifugation after ultrasonic disintegration (100,000 G, 30 minutes, 4° C.). […] Each fraction was tested for the cAMP metabolized PDE activity to identify the fractions containing PDE4 enzyme.
(2) Measurement of Inhibitory Activity of PDE4 Enzyme Activity
A desired concentration of the test compound was allowed to react in a reaction mixture (100 μL; 40 mM Tris-HCl (pH 7.4), 5 MM MgCl2, 4 mM 2-mercaptoethanol, […] cAMP, 0.83 μCi [^3H]-cAMP and PDE4 fraction) at 30° C. for 10 minutes. The enzyme reaction was stopped by adding 25 μL of trichloroacetic acid to the reaction mixture. The reaction solution was charged on a neutral alumina column equilibrated with 0.1 M of 2-[[tris(hydroxylmethyl)methyl]-amino]-1-ethanesulfonic acid (TES) buffer (pH 8.0) and, after washing the column with a sufficient amount of 0.1 M TES buffer solution, the column was eluted with 2N NaOH. A 500 μL aliquot of the eluate containing [^3H]-5′AMP product was filled in a scintillation vial containing the scintillation cocktail (5 ml, manufactured by Perkin Elmer Co.) to measure radioactivity. […] The inhibitory action of PDE4 enzyme activity was expressed by IC50 (nM). Ex. No. in Table 8 denotes the example No.

[1] = system: TNF-α production in LPS-stimulated mouse mononuclear cells; assay: Inhibitory action of TNF-α production using mouse mononuclear cells (in vitro); type: cell-based; details: mouse mononuclear cells from peripheral blood of C3H/He mouse; LPS 5 μg/mL, 21 hours; TNF-α ELISA; read-out: IC50 (nM), suppression action of TNF-α production
Protocol: Mouse mononuclear cells were isolated from the peripheral blood of C3H/He mouse (manufactured by Japan SLC Co., male), and were suspended in a culture medium (trade name RPMI 1640 manufactured by Gibco Co.) containing 10% bovine serum. The cells were seeded in a 96 well plate as 50,000 cells/well, the test compound was added at a desired concentration, and the plate was allowed to stand in an incubator containing 5% CO2 at .37° C. for 15 minutes. LPS was added thereafter at a final concentration of 5 μg/mL, and the plate was allowed to stand in the incubator for 21 hours.
The culture medium containing produced TNF-α was retrieved, and the amount of TNF-α was measured according to the protocol attached to mouse TNF-α ELISA kit (manufactured by R & D Systems Co.). […] The suppression action of TNF-α was expressed-by […] (nM). Ex. No. in Table 9 denotes the example No.

[2] = system: TNF-α production induced by LPS; assay: Inhibitory action of TNF-α production (in vivo) induced by LPS using mouse; details: C3H/He mouse; orally administered 60 minutes before LPS 10 μg intraperitoneally; plasma TNF-α 90 minutes after LPS; read-out: ED50 (mg/kg), suppression action of TNF-α production
Protocol: C3H/He mouse (manufactured by Japan SLC Co., male) was used as a test animal. A desired concentration of the test sample was suspended in 0.5% methyl cellulose solution. The weight of the mouse was measured, and the test compound solution was orally administered at a dosage of 10 mL/kg while only 0.5% methyl cellulose was administered to the reference group. One group contained 5 to 7 mice. LPS was dissolved in physiological saline, and 10 μg was intraperitoneally administered to each mouse. The test compound was administered first, then LPS was administered 60 minutes thereafter. After 90 minutes, the blood was sampled from the large abdominal vein with the heparin, and a plasma was obtained by centrifugation. The content of TNF-α in the plasma was measured according to the protocol attached to TNF-α ELISA kit (manufactured by R & D System Co.). […] The suppression action of TNF-α production was represented by ED50 (mg/kg). Ex. No. in Table 11 denotes the example No.

IC50 (PDE4) | IC50 [1] | Compound | ED50 [2]
490 nM | 55 nM | CCCc1c(CC)nc(-c2ccsc2)nc1Nc1ccc(C(=O)O)cc1 [Example 15] | 13 mg/kg
156 nM | – | C=CCc1c(CC)nc(-c2cc(OC)cs2)nc1Nc1ccc2cc(C(=O)O)ccc2c1 [Example 185] | –
– | 86 nM | CCc1c(C)nc(-c2ccc(OC)s2)nc1Nc1ccc(CC(=O)NO)cc1 [Example 203] | –
– | 504 nM | CCc1c(C)nc(-c2ccc(Cl)s2)nc1Nc1ccc(CC(=O)O)cc1 [Example 253] | 14 mg/kg
– | 59 nM | CCc1nc(-c2ccc(Br)s2)nc(Nc2ccc(C(=O)O)cc2)c1CC [Example 220] | 41 mg/kg
– | 239 nM | C=CCc1c(CC)nc(-c2ccc(OC)s2)nc1Nc1ccc(C(=O)O)cc1 [Example 54] | –
1170 nM | 790 nM | C=CCc1c(C)nc(-c2ccsc2)nc1Nc1ccc(C(=O)O)cc1 [Example 11] | 26 mg/kg
192 nM | – | C=CCc1c(CC)nc(-c2ccc(C)s2)nc1Nc1ccc2cc(C(=O)O)ccc2c1 [Example 209] | –
– | 249 nM | CCc1c(C)nc(-c2ccc(C(=O)OC)s2)nc1Nc1ccc(C(=O)O)cc1 [Example 50] | –
– | 67 nM | CCc1nc(-c2ccoc2)nc(Nc2ccc(C(=O)O)cc2)c1CC [Example 86] | 8 mg/kg
90 nM | 44 nM | C=CCc1c(CC)nc(-c2ccco2)nc1Nc1ccc2cc(C(=O)O)ccc2c1 [Example 191] | –
– | 80 nM | CCc1nc(-c2ccco2)nc(Nc2ccc(C(=O)O)cc2)c1CC [Example 186] | –
– | 73 nM | CCc1nc(-c2ccc(OC)s2)nc(Nc2ccc(C(=O)O)cc2)c1CC [Example 80] | –
– | 53 nM | CCc1nc(-c2ccc(Br)s2)nc(Nc2ccc(CC(=O)O)cc2)c1CC [Example 221] | 24 mg/kg
90 nM | 57 nM | CCc1nc(-c2ccc(OC)s2)nc(Nc2ccc3cc(C(=O)O)ccc3c2)c1CC [Example 82] | –
133 nM | – | C=CCc1c(CC)nc(-c2ccc(CC)s2)nc1Nc1ccc2cc(C(=O)O)ccc2c1 [Example 201] | –
– | 58 nM | CCc1nc(-c2ccc(C)s2)nc(Nc2ccc3cc(C(=O)O)ccc3c2)c1CC [Example 111] | 15 mg/kg
116 nM | – | C=CCc1c(CC)nc(-c2ccoc2)nc1Nc1ccc2cc(C(=O)O)ccc2c1 [Example 105] | –
1390 nM | 265 nM | CCc1c(C)nc(-c2cccs2)nc1Nc1ccc(C(=O)O)cc1 [Example 5] | –
– | 247 nM | C=CCc1c(CCC)nc(-c2ccsc2)nc1Nc1ccc(C(=O)O)cc1 [Example 68] | –

Further lines, the compound ahead of its results:

Compound | IC50 (PDE4) | IC50 [1] | ED50 [2]
C=CCc1c(C)nc(-c2cccs2)nc1Nc1ccc2cc(C(=O)O)ccc2c1 [Example 3] | 356 nM | 1900 nM | –
CCc1c(C)nc(-c2cccs2)nc1Nc1ccc(CC(=O)O)cc1 [Example 6] | 2940 nM | 4930 nM | –
CCc1c(C)nc(-c2ccc(C)s2)nc1Nc1ccc(CC(=O)O)cc1 [Example 205] | – | – | 21 mg/kg
C=CCc1c(C)nc(-c2ccc(Br)s2)nc1Nc1ccc(CC(=O)O)cc1 [Example 241] | – | – | 39 mg/kg
CCc1c(C)nc(-c2ccsc2)nc1Nc1ccc2cc(C(=O)O)ccc2c1 [Example 20] | 191 nM | 289 nM | –
CCCc1nc(-c2ccsc2)nc(Nc2ccc3cc(C(=O)O)ccc3c2)c1CC [Example 73] | – | 211 nM | –
CCc1c(C)nc(-c2ccc(I)s2)nc1Nc1ccc(CC(=O)O)cc1F [Example 345] | – | – | 37 mg/kg
CCc1c(C)nc(-c2ccc(SC)s2)nc1Nc1ccc2cc(C(=O)O)ccc2c1 [Example 79] | 117 nM | – | –
CCc1c(C)nc(-c2ccc(F)s2)nc1Nc1ccc(CC(=O)O)cc1F [Example 376] | – | – | 12 mg/kg
CCc1nc(-c2ccc(Cl)s2)nc(Nc2ccc(CC(=O)O)cc2)c1CC [Example 289] | – | – | 18 mg/kg
CCc1nc(-c2cc(C)c(C)o2)nc(Nc2ccc3cc(C(=O)O)ccc3c2)c1CC [Example 157] | – | 80 nM | –
C=CCc1c(C)nc(-c2ccc(Cl)s2)nc1Nc1ccc(CC(=O)O)cc1 [Example 254] | – | – | 38 mg/kg
CCc1nc(-c2cccs2)nc(Nc2ccc3cc(C(=O)O)ccc3c2)c1CC [Example 85] | 76 nM | 29 nM | –
C=CCc1c(C)nc(-c2ccoc2)nc1Nc1ccc2cc(C(=O)O)ccc2c1 [Example 23] | 633 nM | 2110 nM | –
CCc1nc(-c2ccc(C)s2)nc(Nc2ccc(CC(=O)O)cc2)c1CC [Example 110] | – | – | 31 mg/kg
CCc1nc(-c2cc(C)c(C)s2)nc(Nc2ccc3cc(C(=O)O)ccc3c2)c1CC [Example 155] | 845 nM | – | –
CCc1c(C)nc(-c2cccs2)nc1Nc1ccc2cc(C(=O)O)ccc2c1 [Example 7] | 409 nM | 267 nM | –
CCc1nc(-c2ccc(SC)s2)nc(Nc2ccc3cc(C(=O)O)ccc3c2)c1CC [Example 129] | – | 85 nM | –
CCc1ccc(-c2nc(CC)c(CC)c(Nc3ccc4cc(C(=O)O)ccc4c3)n2)s1 [Example 198] | 105 nM | – | –

Compound | IC50 (PDE4) | IC50 [1] | ED50 [2]
CCc1c(C)nc(-c2ccc(F)s2)nc1Nc1ccc(CC(=O)O)cc1 [Example 373] | – | – | 19 mg/kg
CCc1nc(-c2cc(C)c(Br)s2)nc(Nc2ccc(C(=O)O)cc2)c1CC [Example 238] | – | – | 20 mg/kg
CCc1nc(-c2ccc(Cc3ccccc3)s2)nc(Nc2ccc3cc(C(=O)O)ccc3c2)c1CC [Example 234] | – | 48 nM | –
CCc1c(C)nc(-c2ccc(Br)s2)nc1Nc1ccc(CC(=O)NO)cc1 [Example 192] | 89 nM | – | –
CCc1c(C)nc(-c2cccs2)nc1Nc1ccc(CC(=O)O)cc1F [Example 344] | – | – | 27 mg/kg
CCc1c(C)nc(-c2cccs2)nc1Nc1ccc(CC(=O)NO)cc1 [Example 116] | – | 10 nM | 12 mg/kg
CCc1c(C)nc(-c2ccoc2)nc1Nc1ccc2cc(C(=O)O)ccc2c1 [Example 26] | 312 nM | 219 nM | –
CCc1c(C)nc(-c2ccc(Br)s2)nc1Nc1ccc(CC(N)=O)cc1 [Example 181] | – | 57 nM | –
CCc1nc(-c2cc(C)c(Br)s2)nc(Nc2ccc(CC(=O)O)cc2)c1CC [Example 239] | – | – | 22 mg/kg
CCc1c(C)nc(-c2ccoc2)nc1Nc1ccc(C(=O)O)cc1 [Example 24] | 3250 nM | 865 nM | –
CCc1nc(-c2cc(C)c(I)s2)nc(Nc2ccc(CC(=O)O)cc2)c1CC [Example 293] | – | – | 18 mg/kg
CCc1c(C)nc(-c2cc(Br)cs2)nc1Nc1ccc(CC(=O)NO)cc1 [Example 193] | 70 nM | 39 nM | –
CCc1nc(-c2ccc(SC)s2)nc(Nc2ccc(CC(=O)O)cc2)c1CC [Example 128] | – | – | 24 mg/kg
C=CCc1c(C)nc(-c2cc(C)c(Br)s2)nc1Nc1ccc(CC(=O)O)cc1 [Example 274] | – | – | 25 mg/kg
Cc1nc(-c2ccc(Cl)s2)nc(Nc2ccc(CC(=O)O)cc2)c1CO [Example 386] | – | – | 50 mg/kg
CCc1c(C)nc(-c2cccs2)nc1Nc1ccc(CC(=O)Nc2ccccc2OC)cc1 [Example 113] | – | 34 nM | –
CCc1nc(-c2ccco2)nc(Nc2ccc3cc(C(=O)O)ccc3c2)c1CC [Example 188] | 59 nM | 46 nM | –
C=CCc1c(CC)nc(-c2ccoc2)nc1Nc1ccc(C(=O)O)cc1 [Example 103] | – | – | 37 mg/kg
CCc1c(C)nc(-c2cc(C)c(I)s2)nc1Nc1ccc(CC(=O)O)cc1 [Example 292] | – | – | 25 mg/kg
